Test results as given in patent US10076116B2, “N-cycloalkyl-N-(biheterocyclymethylene)-(thio)carboxamide derivatives” (BAYER CROPSCIENCE AKTIENGESELLSCHAFT, priority 2013, dated 2018).
Each block holds one compound with its values, some of them ahead of it.

What was measured:
Puccinia recondita = experiment: In vivo preventive test on Puccinia recondita (brown rust on wheat); conditions: for protection: dose of 500 and 100 ppm, analogues of WO2012/059497
Method: Example C: In Vivo Preventive Test on Puccinia recondita (Brown Rust on Wheat) […]
The young plants of wheat are treated by spraying the active ingredient prepared as described above. […]
After 24 hours, the plants are contaminated by spraying the leaves with an aqueous suspension of Puccinia recondita spores. The contaminated wheat plants are incubated for 24 hours at 20° C. and at 100% relative humidity and then for 10 days at 20° C. and at 70-80% relative humidity.
The test is evaluated 11 days after the inoculation. 0% means an efficacy which corresponds to that of the control plants while an efficacy of 100% means that no disease is observed.

Alternaria brassicae = experiment: In vivo preventive test on Alternaria brassicae (leaf spot on radish)
Method: Example A: In Vivo Preventive Test on Alternaria brassicae (Leaf Spot on Radish) Solvent: 5% by volume of Dimethyl sulfoxide • 10% by volume of Acetone Emulsifier: 1 μL of TWEEN® 80 (Polyoxyethylene (20) sorbitan monooleate) per mg of active ingredient The active ingredients are made soluble and homogenized in a mixture of Dimethyl sulfoxide/Acetone/TWEEN® 80 and then diluted in water to the desired concentration. The young plants of radish are treated by spraying the active ingredient prepared as described above. Control plants are treated only with an aqueous solution of Acetone/Dimethyl sulfoxide/TWEEN® 80. After 24 hours, the plants are contaminated by spraying the leaves with an aqueous suspension of Alternaria brassicae spores. The contaminated radish plants are incubated for 6 days at 20° C. and at 100% relative humidity. The test is evaluated 6 days after the inoculation. 0% means an efficacy which corresponds to that of the control plants while an efficacy of 100% means that no disease is observed.

Uromyces appendiculatus = experiment: In vivo preventive test on Uromyces appendiculatus (bean rust)
Method: Example G: In Vivo Preventive Test on Uromvces Appendiculatus (Bean Rust) Solvent: 5% by volume of Dimethyl sulfoxide • 10% by volume of Acetone Emulsifier: 1 μL of TWEEN® 80 per mg of active ingredient The active ingredients are made soluble and homogenized in a mixture of Dimethyl sulfoxide/Acetone/TWEEN® 80 and then diluted in water to the desired concentration. The young plants of bean are treated by spraying the active ingredient prepared as described above. Control plants are treated only with an aqueous solution of Acetone/Dimethyl sulfoxide/TWEEN® 80. After 24 hours, the plants are contaminated by spraying the leaves with an aqueous suspension of Uromyces appendiculatus spores. The contaminated bean plants are incubated for 24 hours at 20° C. and at 100% relative humidity and then for 10 days at 20° C. and at 70-80% relative humidity. The test is evaluated 11 days after the inoculation. 0% means an efficacy which corresponds to that of the control plants while an efficacy of 100% means that no disease is observed.

Botrytis cinerea = experiment: In vivo preventive test on Botrytis cinerea (grey mould); conditions: gherkin; for protection: dose of 500 and 100 ppm of active ingredient
Method: Example B: In Vivo Preventive Test Botrvtis Cinerea (Grey Mould) Solvent: 5% by volume of Dimethyl sulfoxide • 10% by volume of Acetone Emulsifier: 1 μL of TWEEN® 80 per mg of active ingredient The active ingredients are made soluble and homogenized in a mixture of Dimethyl sulfoxide/Acetone/TWEEN® 80 and then diluted in water to the desired concentration. The young plants of gherkin are treated by spraying the active ingredient prepared as described above. Control plants are treated only with an aqueous solution of Acetone/Dimethyl sulfoxide/TWEEN® 80. After 24 hours, the plants are contaminated by spraying the leaves with an aqueous suspension of Botrytis cinerea spores. The contaminated gherkin plants are incubated for 4 to 5 days at 17° C. and at 90% relative humidity. The test is evaluated 4 to 5 days after the inoculation. 0% means an efficacy which corresponds to that of the control plants while an efficacy of 100% means that no disease is observed.

[1] = log P by HPLC on reversed-phase column (C 18), EEC Directive 79/831 Annex V.A8; type: physicochemical; conditions: HPLC C 18, 40° C., 0.1% aqueous formic acid and acetonitrile, gradient 10% to 90% acetonitrile
Method: In table 1, the log P values were determined in accordance with EEC Directive 79/831 Annex V.A8 by HPLC (High Performance Liquid Chromatography) on a reversed-phase column (C 18), using the method described below: Temperature: 40° C.; Mobile phases: 0.1% aqueous formic acid and acetonitrile; linear gradient from 10% acetonitrile to 90% acetonitrile. Calibration was carried out using unbranched alkan-2-ones (comprising 3 to 16 carbon atoms) with known log P values (determination of the log P values by the retention times using linear interpolation between two successive alkanones). lambda-max-values were determined using UV-spectra from 200 nm to 400 nm and the peak values of the chromatographic signals.

[2] = dose 500 ppm, in very similar conditions, prior-art analogues
[3] = very similar conditions, formulated in DMF with 2% of alkylarylpolyglycolether
[4] = wheat, compounds of this patent
[5] = dose 100 ppm, wheat, compounds of this patent
[6] = dose 500 ppm, wheat, compounds of this patent

Compound: Cn1nc(C(=O)N(Cc2nc(-c3ccc(Cl)cc3)cs2)C2CC2)c(C(F)(F)F)n1 [50 from WO2008/015189, N-{[4-(4-chlorophenyl)-1,3-thiazol-2-yl]methyl}-N-cyclopropyl-2-methyl-5-(trifluoromethyl)-2H-1,2,3-triazole-4-carboxamide]
Efficacy (Table C3) (Puccinia recondita; [2]): 0%

Compound: Cn1cc(C(=O)N(Cc2nc(-c3ccc(Cl)cc3)cs2)C2CC2)c(C(F)(F)F)n1 [59 from WO2008/015189, N-{[4-(4-chlorophenyl)-1,3-thiazol-2-yl]methyl}-N-cyclopropyl-1-methyl-3-(trifluoromethyl)-1H-pyrazole-4-carboxamide]
Efficacy (Table C3) (Puccinia recondita; [2]): 0%

Compound: Cc1nn(-c2ccccc2)nc1CN(C(=O)c1c(C(F)F)nn(C)c1F)C1CC1 [131 from WO2012/059497, N-cyclopropyl-3-(difluoromethyl)-5-fluoro-1-methyl-N-[(5-methyl-2-phenyl-2H-1,2,3-triazol-4-yl)methyl]-1H-pyrazole-4-carboxamide]
Efficacy at 100 ppm (Table C1) (Puccinia recondita; [3]): 0% | Efficacy at 500 ppm (Table C1) (Puccinia recondita; [3]): 11% | protection (Puccinia recondita; in very similar conditions): good (at least 80%) to no protection

Compound: Cc1sc(-c2ccccc2)cc1C(C)N(C(=O)c1c(C(F)F)nn(C)c1F)C1CC1 (stereo not shown) [147 from WO2012/059497, N-cyclopropyl-3-(difluoromethyl)-5-fluoro-1-methyl-N-[1-(2-methyl-5-phenyl-3-thienyl)ethyl]-1H-pyrazole-4-carboxamide]
Efficacy at 100 ppm (Table C1) (Puccinia recondita; [3]): 0% | Efficacy at 500 ppm (Table C1) (Puccinia recondita; [3]): 30% | protection (Puccinia recondita; in very similar conditions): good (at least 80%) to no protection

Compound: Cn1nc(C(F)F)c(C(=O)N(Cc2cc(-c3ccc(Cl)cc3)no2)C2CC2)c1F [153 from WO2012/059497, N-{[3-(4-chlorophenyl)-1,2-oxazol-5-yl]methyl}-N-cyclopropyl-3-(difluoromethyl)-5-fluoro-1-methyl-1H-pyrazole-4-carboxamide]
Efficacy at 100 ppm (Table C1) (Puccinia recondita; [3]): 10% | Efficacy at 500 ppm (Table C1) (Puccinia recondita; [3]): 80% | protection (Puccinia recondita; in very similar conditions): good (at least 80%) to no protection

Compound: Cn1nc(C(F)F)c(C(=O)N(Cc2cc3ccccc3n2-c2ccccc2)C2CC2)c1F [155 from WO2012/059497, N-cyclopropyl-3-(difluoromethyl)-5-fluoro-1-methyl-N-[(1-phenyl-1H-indol-2-yl)methyl]-1H-pyrazole-4-carboxamide]
Efficacy at 100 ppm (Table C1) (Puccinia recondita; [3]): 0% | Efficacy at 500 ppm (Table C1) (Puccinia recondita; [3]): 20% | protection (Puccinia recondita; in very similar conditions): good (at least 80%) to no protection

Compound: Cn1nc(C(F)F)c(C(=O)N(Cc2cc(-c3cc(F)c(F)c(F)c3)no2)C2CC2)c1F [165 from WO2012/059497, N-cyclopropyl-3-(difluoromethyl)-5-fluoro-1-methyl-N-{[3-(3,4,5-trifluorophenyl)-1,2-oxazol-5-yl]methyl}-1H-pyrazole-4-carboxamide]
Efficacy at 100 ppm (Table C1) (Puccinia recondita; [3]): 0% | Efficacy at 500 ppm (Table C1) (Puccinia recondita; [3]): 10% | protection (Puccinia recondita; in very similar conditions): good (at least 80%) to no protection

Compound: Cc1nc(-c2ccc(Cl)cc2)sc1CN(C(=O)c1c(C(F)F)nn(C)c1F)C1CC1 [167 from WO2012/059497, N-{[2-(4-chlorophenyl)-4-methyl-1,3-thiazol-5-yl]methyl}-N-cyclopropyl-3-(difluoromethyl)-5-fluoro-1-methyl-1H-pyrazole-4-carboxamide]
Efficacy at 100 ppm (Table C1) (Puccinia recondita; [3]): 0% | Efficacy at 500 ppm (Table C1) (Puccinia recondita; [3]): 0% | protection (Puccinia recondita; in very similar conditions): good (at least 80%) to no protection

Compound: Cn1nc(C(F)F)c(C(=O)N(Cc2nn(-c3ccccc3)cc2-c2cccnc2)C2CC2)c1F [CMP1, N-cyclopropyl-3-(difluoromethyl)-5-fluoro-1-methyl-N-{[1-phenyl-4-(pyridin-3-yl)-1H-pyrazol-3-yl]methyl}-1H-pyrazole-4-carboxamide, reference compound]
efficacy (Alternaria brassicae; 500 ppm of active ingredient, radish plants sprayed 24 hours before inoculation, evaluated 6 days after inoculation): no protection | Efficacy (Table A1) (Alternaria brassicae; dose 500 ppm, radish, 6 days after inoculation): 0%

Compound: Cn1nc(C(F)F)c(C(=O)N(Cc2ncc(C(F)(F)F)cc2-c2cccnc2)C2CC2)c1F [CMP2, N-cyclopropyl-3-(difluoromethyl)-5-fluoro-1-methyl-N-{[5-(trifluoromethyl)-3,3′-bipyridin-2-yl]methyl}-1H-pyrazole-4-carboxamide, reference compound]
Efficacy (Table G1) (Uromyces appendiculatus; dose 100 ppm): 0% | Efficacy (Table G1) (Uromyces appendiculatus; dose 500 ppm): 0% | Efficacy (Table B1) (Botrytis cinerea; dose 100 ppm): 0% | Efficacy (Table B1) (Botrytis cinerea; dose 500 ppm): 0% | protection (Botrytis cinerea): no protection

Compound: Cn1nc(C(F)F)c(C(=O)N(Cc2ncc(C(F)(F)F)cc2-c2ccncc2)C2CC2)c1F [CMP3, N-cyclopropyl-3-(difluoromethyl)-5-fluoro-1-methyl-N-{[5-(trifluoromethyl)-3,4′-bipyridin-2-yl]methyl}-1H-pyrazole-4-carboxamide, reference compound]
Efficacy (Table G1) (Uromyces appendiculatus; dose 100 ppm): 0% | Efficacy (Table G1) (Uromyces appendiculatus; dose 500 ppm): 17% | Efficacy (Table B1) (Botrytis cinerea; dose 100 ppm): 0% | Efficacy (Table B1) (Botrytis cinerea; dose 500 ppm): 0% | protection (Botrytis cinerea): no protection

logP [1]: 2.88
Compound: Cc1nc(C)c(-c2sccc2CN(C(=O)c2c(C(F)F)nn(C)c2F)C2CC2)s1 [I.11]
efficacy (Puccinia recondita; 500 ppm of active ingredient, wheat plants, evaluated 11 days after inoculation): at least 60% | Efficacy (Table C3) (Puccinia recondita; dose 500 ppm, wheat, compound of this patent): 69%

logP [1]: 3.89
Compound: Cn1nc(C(F)F)c(C(=O)N(Cc2ncc(C(F)(F)F)cc2-c2cccs2)C2CC2)c1F [I.19]
Efficacy (Table G1) (Uromyces appendiculatus; dose 100 ppm): 100% | Efficacy (Table G1) (Uromyces appendiculatus; dose 500 ppm): 100% | Efficacy (Table B1) (Botrytis cinerea; dose 100 ppm): 100% | Efficacy (Table B1) (Botrytis cinerea; dose 500 ppm): 95%

logP [1]: 4.35
Compound: Cc1ccc(-c2cc(C(F)(F)F)cnc2CN(C(=O)c2c(C(F)F)nn(C)c2F)C2CC2)s1 [I.21]
Efficacy at 100 ppm (Table C1) (Puccinia recondita; [4]): 89% | Efficacy at 500 ppm (Table C1) (Puccinia recondita; [4]): 98%

logP [1]: 3.89
Compound: COc1ccsc1-c1cc(C(F)(F)F)cnc1CN(C(=O)c1c(C(F)F)nn(C)c1F)C1CC1 [I.23]
Efficacy at 100 ppm (Table C1) (Puccinia recondita; [4]): 98% | Efficacy at 500 ppm (Table C1) (Puccinia recondita; [4]): 100%

logP [1]: 3.78
Compound: Cn1nc(C(F)F)c(C(=O)N(Cc2ncc(C(F)(F)F)cc2-c2ccnc3cc(Cl)ccc23)C2CC2)c1F [I.29]
Efficacy (Table G1) (Uromyces appendiculatus; dose 100 ppm): 67% | Efficacy (Table G1) (Uromyces appendiculatus; dose 500 ppm): 100% | Efficacy (Table B1) (Botrytis cinerea; dose 100 ppm): 39% | Efficacy (Table B1) (Botrytis cinerea; dose 500 ppm): 83%

logP [1]: 4.16
Compound: Cn1nc(C(F)F)c(C(=O)N(Cc2ncc(C(F)(F)F)cc2-c2coc3ccccc23)C2CC2)c1F [I.31]
Efficacy (Table G1) (Uromyces appendiculatus; dose 100 ppm): 78% | Efficacy (Table G1) (Uromyces appendiculatus; dose 500 ppm): 97% | Efficacy (Table B1) (Botrytis cinerea; dose 100 ppm): 100% | Efficacy (Table B1) (Botrytis cinerea; dose 500 ppm): 100% | Efficacy at 100 ppm (Table C1) (Puccinia recondita; [4]): 88% | Efficacy at 500 ppm (Table C1) (Puccinia recondita; [4]): 94%

logP [1]: 4.67
Compound: Cc1cscc1-c1cc(C(F)(F)F)cnc1CN(C(=S)c1c(C(F)F)nn(C)c1F)C1CC1 [I.37]
Efficacy (Table C2) (Puccinia recondita; [5]): 86% | Efficacy (Table C2) (Puccinia recondita; [6]): 93%

logP [1]: 3.42
Compound: Cn1cc(C(=O)N(Cc2ncc(C(F)(F)F)cc2-c2ccsc2)C2CC2)c(C(F)F)n1 [I.41]
Efficacy (Table C2) (Puccinia recondita; [5]): 79% | Efficacy (Table C2) (Puccinia recondita; [6]): 93%
